Laboratory results taken from ChEMBL document CHEMBL1201862, “PubChem BioAssay data set” (2004).
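All cell lines were grown in 96-well plates and treated with compound for 48 hours. At the GI50, growth is halved.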 Activity calls are given as the source filed them. No stated cut-off is given here; in the data, active = GI50 up to about 1.1 µM and inactive = higher.

Legend:
Experiment in all cases: NCI anticancer screen, dose series, 48 h
786-0 = test system: 786-0
CCRF-CEM = test system: CCRF-CEM
HL-60 = test system: HL-60
HOP-62 = test system: HOP-62
IGROV-1 = test system: IGROV-1
K562 = test system: K562
Malme-3M = test system: Malme-3M
NCI-H23 = test system: NCI-H23
OVCAR-3 = test system: OVCAR-3
OVCAR-8 = test system: OVCAR-8
RPMI-8226 = test system: RPMI-8226
RXF 393 = test system: RXF 393
SF-268 = test system: SF-268
SK-MEL-5 = test system: SK-MEL-5
SN12C = test system: SN12C
SNB-19 = test system: SNB-19
SNB-75 = test system: SNB-75
UACC-62 = test system: UACC-62
SR = test system: SR

Measured: GI50

CCC1c2cc3n(c(=O)c2COC1O)Cc1c-3nc2ccccc2c1Cl (configuration not stated)
inactive: 786-0 25.7 µM | CCRF-CEM 3.34 µM | HL-60 26.9 µM | HOP-62 14.8 µM | IGROV-1 > 75.3 µM | K562 32.2 µM | Malme-3M > 100 µM | NCI-H23 28.7 µM | OVCAR-3 > 100 µM | OVCAR-8 55.3 µM | RPMI-8226 > 29.3 µM | RXF 393 73.8 µM | SF-268 14.4 µM | SK-MEL-5 29.4 µM | SN12C 10.1 µM | SNB-19 30.3 µM | SNB-75 20.5 µM | UACC-62 6.95 µM

Clc1ccc(C2=Nc3ccccc3SC(c3cccs3)C2)cc1 (configuration not stated)
inactive: 786-0 16.3 µM | HOP-62 18.2 µM | IGROV-1 14 µM | K562 5.16 µM | Malme-3M > 10 µM | NCI-H23 14.1 µM | OVCAR-3 11.5 µM | OVCAR-8 16.2 µM | RPMI-8226 2.42 µM | RXF 393 10.7 µM | SF-268 16.3 µM | SK-MEL-5 16.5 µM | SN12C 15.6 µM | SNB-19 16.4 µM | SNB-75 16.9 µM | SR 2.43 µM | UACC-62 15.3 µM

COc1nc(OC)c2c(=O)oc(-c3ccccc3)cc2n1
inactive: 786-0 > 100 µM | IGROV-1 > 100 µM | K562 > 100 µM | Malme-3M > 100 µM | NCI-H23 > 100 µM | OVCAR-3 > 10 µM | OVCAR-8 > 100 µM | RPMI-8226 > 100 µM | RXF 393 > 100 µM | SF-268 > 100 µM | SK-MEL-5 > 100 µM | SN12C > 100 µM | SNB-19 > 100 µM | SNB-75 53.5 µM | SR > 100 µM | UACC-62 > 100 µM

COc1ccc2c(c1)CC1NC2Cc2ccccc21 (configuration not stated)
inactive: 786-0 > 100 µM | CCRF-CEM > 100 µM | HOP-62 > 100 µM | IGROV-1 > 100 µM | K562 > 100 µM | Malme-3M > 100 µM | NCI-H23 > 100 µM | OVCAR-3 > 100 µM | OVCAR-8 > 100 µM | RPMI-8226 > 100 µM | SF-268 > 100 µM | SK-MEL-5 > 100 µM | SN12C > 10 µM | SNB-75 > 100 µM | UACC-62 > 100 µM

N=C(N)NNC(=O)CCCCCCCC(=O)NNC(=N)N
inactive: 786-0 > 100 µM | CCRF-CEM > 100 µM | HL-60 > 100 µM | HOP-62 > 100 µM | IGROV-1 > 100 µM | K562 > 100 µM | Malme-3M > 100 µM | NCI-H23 > 100 µM | RXF 393 > 100 µM | SF-268 > 100 µM | SK-MEL-5 > 100 µM | SN12C > 100 µM | SNB-19 > 100 µM | UACC-62 > 100 µM

CCOC(=O)C1=C(Nc2cccc3ccccc23)OCC1=O
inactive: 786-0 > 100 µM | CCRF-CEM > 100 µM | HOP-62 > 100 µM | IGROV-1 > 100 µM | K562 > 100 µM | Malme-3M > 100 µM | NCI-H23 > 100 µM | OVCAR-3 > 100 µM | OVCAR-8 > 100 µM | RPMI-8226 > 100 µM | SF-268 > 100 µM | SK-MEL-5 > 100 µM | SN12C > 100 µM | SNB-19 > 100 µM | SNB-75 > 100 µM | SR > 100 µM | UACC-62 > 100 µM

O=C1C=CC(=O)c2nc3c(cc21)CCC3
inactive: 786-0 18 µM | CCRF-CEM 5.61 µM | HL-60 4.67 µM | HOP-62 > 100 µM | IGROV-1 17.8 µM | K562 16.9 µM | Malme-3M 17.5 µM | NCI-H23 25 µM | OVCAR-3 17.5 µM | OVCAR-8 15.2 µM | RXF 393 19.7 µM | SF-268 17.9 µM | SK-MEL-5 20.4 µM | SN12C 19.1 µM | SNB-19 > 100 µM | SNB-75 67.5 µM | SR 5.92 µM | UACC-62 18.6 µM

c1ccc2c(c1)CCc1c(-c3n[nH]c4c3CCc3ccccc3-4)n[nH]c1-2
inactive: 786-0 > 100 µM | CCRF-CEM > 100 µM | HL-60 > 100 µM | HOP-62 > 100 µM | IGROV-1 > 100 µM | K562 27.9 µM | Malme-3M > 100 µM | NCI-H23 > 100 µM | OVCAR-3 > 100 µM | OVCAR-8 > 100 µM | SF-268 > 100 µM | SK-MEL-5 > 100 µM | SN12C > 100 µM | SNB-19 > 100 µM | SNB-75 56.5 µM | SR 46.9 µM | UACC-62 > 100 µM
